Measured values as given in patent publication US20230122249A1, “1H-PYRAZOLO[4,3-d]PYRIMIDINE COMPOUNDS AS TOLL-LIKE RECEPTOR 7 (TLR7) AGONISTS” (BRISTOL-MYERS SQUIBB COMPANY, priority 2020, published 2023).
pEC50: −log10 of the molar value.

Key:
human TLR7 = biological target: T1, human TLR7 (Homo sapiens, UniProt Q9NYK1); experiment: Human TLR7 agonist activity (hTLR7 reporter) assay in HEK-Blue TLR7 cells, SEAP readout; format: cell-based; details: 18 h treatment, average where assay repeated
T1 construct: host or cells: HEK-Blue TLR7 cells (engineered human embryonic kidney cells)
T1 sequence (Q9NYK1 27-1049): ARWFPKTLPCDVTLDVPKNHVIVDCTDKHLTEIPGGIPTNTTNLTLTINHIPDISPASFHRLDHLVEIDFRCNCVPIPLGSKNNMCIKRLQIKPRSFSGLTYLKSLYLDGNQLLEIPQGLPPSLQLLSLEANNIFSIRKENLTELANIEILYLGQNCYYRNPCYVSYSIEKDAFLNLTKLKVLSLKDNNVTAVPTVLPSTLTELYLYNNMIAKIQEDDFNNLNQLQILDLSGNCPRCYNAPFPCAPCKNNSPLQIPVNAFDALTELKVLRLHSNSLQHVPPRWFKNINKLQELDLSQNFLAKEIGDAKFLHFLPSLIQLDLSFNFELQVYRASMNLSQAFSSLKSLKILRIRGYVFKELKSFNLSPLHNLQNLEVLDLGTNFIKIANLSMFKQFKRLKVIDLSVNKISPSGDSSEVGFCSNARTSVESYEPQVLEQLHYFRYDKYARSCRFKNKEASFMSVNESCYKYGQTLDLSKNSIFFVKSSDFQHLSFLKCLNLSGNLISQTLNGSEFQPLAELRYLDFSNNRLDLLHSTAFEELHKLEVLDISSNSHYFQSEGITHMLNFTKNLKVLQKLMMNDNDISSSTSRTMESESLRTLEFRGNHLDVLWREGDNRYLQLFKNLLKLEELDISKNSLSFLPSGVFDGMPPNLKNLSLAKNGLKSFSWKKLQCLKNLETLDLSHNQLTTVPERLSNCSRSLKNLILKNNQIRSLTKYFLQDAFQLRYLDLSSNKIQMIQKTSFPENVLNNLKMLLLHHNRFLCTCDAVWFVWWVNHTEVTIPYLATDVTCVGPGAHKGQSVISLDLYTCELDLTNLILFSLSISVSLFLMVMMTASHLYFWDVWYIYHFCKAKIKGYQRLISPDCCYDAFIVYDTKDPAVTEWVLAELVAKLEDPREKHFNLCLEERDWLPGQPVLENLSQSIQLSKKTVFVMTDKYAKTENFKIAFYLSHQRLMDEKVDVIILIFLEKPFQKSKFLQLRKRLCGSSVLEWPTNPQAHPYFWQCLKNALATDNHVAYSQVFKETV
Procedure: This procedure describes a method for assaying human TLR7 (hTLR7) agonist activity of the compounds disclosed in this specification.
HEK-Blue™ TLR7 cells were added to each well of a 384-well tissue-culture plate (15,000 cells per well) and incubated 16-18 h at 37° C., 5% CO2. Compounds (100 nl) were dispensed into wells containing the HEK-Blue™ TLR cells and the treated cells were incubated at 37° C., 5% CO2. After 18 h treatment ten microliters of freshly-prepared Quanti-Blue™ reagent (Invivogen) was added to each well, incubated for 30 min (37° C., 5% CO2) and SEAP levels measured using an Envision plate reader (OD=620 nm). The half maximal effective concentration values (EC50; compound concentration which induced a response halfway between the assay baseline and maximum) were calculated.

[1] = system: CD69 in human whole blood; experiment: Induction of CD69 in human whole blood (hWB); format: cell-based; details: heparinized human whole blood, 17 h, CD69 surface staining; 100% set to 1 uM resiquimod; average where assay repeated
Procedure: The induction of Type I interferon (IFN) MX-1 genes and the B-cell activation marker CD69 are downstream events that occur upon activation of the TLR7 pathway. The following is a human whole blood assay that measures their induction in response to a TLR7 agonist.
Heparinized human whole blood was harvested from human subjects and treated with test TLR7 agonist compounds at 1 mM. The blood was diluted with RPMI 1640 media and Echo was used to predot 10 nL per well giving a final concentration of 1 uM (10 nL in 10 uL of blood). After mixing on a shaker for 30 sec, the plates were covered and placed in a 37° C. chamber for o/n=17 hrs. Fixing/lysis buffer was prepared (5×->1×in H2O, warm at 37° C.; Cat# BD 558049) and kept the perm buffer (on ice) for later use.
For surface markers staining (CD69): prepared surface Abs: 0.045 ul hCD14-FITC (ThermoFisher Cat # MHCD1401)+0.6 ul hCD19-ef450 (ThermoFisher Cat #48-0198-42)+1.5 ul hCD69-PE (cat# BD555531)+0.855 ul FACS buffer. Added 3 ul/well, spin1000 rpm for 1 min and mixed on shaker for 30 sec, put on ice for 30 mins. Stop stimulation after 30 minutes with 70 uL of prewarmed 1×fix/lysis buffer and use Feliex mate to resuspend (15 times, change tips for each plate) and incubate at 37° C. for 10 minutes.
Centrifuge at 2000 rpm for 5 minutes aspirate with HCS plate washer, mix on shaker for 30 sec and then wash with 70 uL in dPBS and pelleted 2 xs (2000 rpm for 5 min) and 50 ul wash in FACS buffer pelleted 1 xs(2000 rpm for 5 min). Mix on shaker for 30 sec. For Intracellular markers staining (MX-1): Add 50 ul of BD Perm buffer III and mix on shaker for 30 sec. Incubate on ice for 30 minutes (in the dark). Wash with 50 uL of FACS buffer 2×(spin @2300 rpm×5 min after perm) followed by mixing on shaker for 30 sec. Resuspended in 20 ul of FACS buffer containing MX1 antibody ( )(4812)-Alexa 647: Novus Biologicals #NBP2-43704AF647) 20 ul FACS bf+0.8 ul hlgG+0.04 ul MX-1. Spin 1000 rpm for 1 min, mix on shaker for 30 se and the samples were incubated at RT in the dark for 45 minutes followed by washing 2×FACS buffer (spin @2300 rpm×5 min after perm). Resuspend 20 ul (35 uL total per well) of FACS buffer and cover with foil and place in 4° C. to read the following day. Plates were read on iQuePlus. The results were loaded into toolset and […] curves are generated in curve master. The y-axis 100% is set to 1 uM of resiquimod.

| pEC50 (human TLR7) | pEC50 [1] | Compound |
| --- | --- | --- |
| 7.20 | 7.87 | CCCCNc1nc(N)nc2cnn(Cc3ccc(CN4CCC5(CC4)CN(CCO)C5)cc3OC)c12 [Compound 259] |
| 7.04 | 7.22 | COc1cc(C(=O)NC2CCN(C)CC2)ccc1Cn1ncc2nc(N)nc(NCC3CC4(CC4)C3)c21 [Compound 198] |
| 7.33 | 7.66 | COc1cc(C(=O)N[C@H]2CCN(C)C2)ccc1Cn1ncc2nc(N)nc(NCC3CC4(CC4)C3)c21 [Compound 192] |
| 7.32 | 8.82 | CCC[C@@H](CCO)Nc1nc(N)nc2cnn(Cc3ncc(C4=CC5(CCN(C6CCOCC6)CC5)C4)cc3OC)c12 [Compound 273, (3S)-3-{[5-amino-1-({3-methoxy-5-[7-(oxan-4-yl)-7-azaspiro[3.5]non-1-en-2-yl]pyridin-2-yl}methyl)-1H-pyrazolo[4,3-d]pyrimidin-7-yl]amino}hexan-1-ol] |
| 6.11 | 6.00 | COc1cc(C(=O)N2C[C@H]3C[C@@H]2CN3C)ccc1Cn1ncc2nc(N)nc(NCC3CC4(C3)CC(F)(F)C4)c21 [Compound 189] |
| 7.13 | 8.02 | COc1cc(CN2C[C@H]3CN(C)C[C@H]3C2)ccc1Cn1ncc2nc(N)nc(NCC3CC4(CC4)C3)c21 [Compound 148] |
| 7.18 | 6.44 | COc1cc(CN2C[C@H]3CNC[C@H]3C2)ccc1Cn1ncc2nc(N)nc(NCC3CC4(CCC4)C3)c21 [Compound 157] |
| 6.54 | 6.07 | COc1cc(C(=O)N2C[C@@H]3CN(S(C)(=O)=O)C[C@@H]3C2)ccc1Cn1ncc2nc(N)nc(NCC3CC4(CC4)C3)c21 [Compound 240] |
| 7.39 | 8.92 | CCC[C@@H](CCO)Nc1nc(N)nc2c(F)nn(Cc3ccc(CN4CC5(CNC5)C4)cc3OC)c12 [Compound 245] |
| 8.18 | 8.00 | CCC[C@@H](CCO)Nc1nc(N)nc2cnn(Cc3ccc(CN4CC5(C4)CN(C(=O)C4(C)CC4)C5)cc3OC)c12 [Compound 107] |
| 6.04 | 6.00 | COc1cc(C(=O)N2C[C@H]3CNC[C@H]3C2)ccc1Cn1ncc2nc(N)nc(NCC3CC4(C3)CC4(F)F)c21 (stereo partly drawn) [Compound 159] |
| 6.85 | 6.91 | COc1cc(CN2CC3(CCOCC3)C2)ccc1Cn1ncc2nc(N)nc(NCC3CC4(C3)CC4F)c21 (stereo not drawn) [Compound 117] |
| 7.32 | 7.82 | COc1cc(C(=O)N[C@@H]2CCN(C)C2)ccc1Cn1ncc2nc(N)nc(NCC3CC4(CC4)C3)c21 [Compound 193] |
| 8.03 | 7.76 | COc1cc(C(=O)N2C[C@H]3CN(C)C[C@H]3C2)ccc1Cn1ncc2nc(N)nc(NCC3CC4(C3)CC4(F)F)c21 (stereo partly drawn) [Compound 150] |
| 6.30 | 6.90 | COc1cc(C(=O)N2CCS(=O)(=O)CC2)ccc1Cn1ncc2nc(N)nc(NCC3CC4(CC4)C3)c21 [Compound 227] |
| 6.18 | 7.50 | CCC[C@@H](CCO)Nc1nc(N)nc2cnn(Cc3ncc(C4=CC5(CCNCC5)C4)cc3OC)c12 [Compound 272, (3S)-3-({5-amino-1-[(5-{7-azaspiro[3.5]non-1-en-2-yl}-3-methoxypyridin-2-yl)methyl]-1H-pyrazolo[4,3-d]pyrimidin-7-yl}amino)hexan-1-ol] |
| 7.17 | 6.96 | COc1cc(C(=O)N2CCN(CCO)CC2)ccc1Cn1ncc2nc(N)nc(NCC3CC4(CC4)C3)c21 [Compound 184] |

| pEC50 (human TLR7) | pEC50 [1] | Compound |
| --- | --- | --- |
| 6.49 | 7.03 | COc1cc(C(=O)NC2CCN(C)CC2)ccc1Cn1nc(C)c2nc(N)nc(NCC3CC4(CC4)C3)c21 [Compound 207] |
| 6.83 | 8.19 | CCCCNc1nc(N)nc2cnn(Cc3ccc(CN4CCC5(CNC5)C4)cc3OC)c12 [Compound 258] |
| 6.75 | 7.48 | CCCCNc1nc(N)nc2cnn(Cc3ccc(CN4CCC5(CCNC5)C4)cc3OC)c12 (stereo not drawn) [Compound 265] |
| 6.84 | 6.59 | COc1cc(CN2C[C@H]3COC[C@H]3C2)ccc1Cn1ncc2nc(N)nc(NCC3CC4(C3)CC4F)c21 (stereo partly drawn) [Compound 119] |
| 7.88 | 9.22 | CCC[C@@H](CCO)Nc1nc(N)nc2cnn(Cc3ncc(C4CCC5(CC4)CN(C4CCOCC4)C5)cc3OC)c12 [Compound 271] |
| 6.23 | 6.26 | COc1cc(CN2CC3(CNC3)C2)ccc1Cn1ncc2nc(N)nc(NCC3CC4(CCC4)C3)c21 [Compound 155] |
| 7.35 | 7.49 | COc1cc(C(=O)N2C[C@@H]3C[C@H]2CN3C)ccc1Cn1ncc2nc(N)nc(NCC3CC4(C3)CC4(F)F)c21 (stereo partly drawn) [Compound 151] |
| 6.61 | 7.30 | CN1CCN(C(=O)c2ccc(Cn3ncc4nc(N)nc(NCC5CC6(CC6)C5)c43)c(OC(F)F)c2)CC1 [Compound 221] |
| 7.57 | 6.88 | COc1cc(CNC2CCOCC2)ccc1Cn1ncc2nc(N)nc(NCC3CC4(CCC4)C3)c21 [Compound 154] |
| 6.14 | 6.44 | COc1cc(C(=O)N2CC3(CNC3)C2)ccc1Cn1ncc2nc(N)nc(NCC3CC4(CCC4)C3)c21 [Compound 180] |
| 6.73 | 7.42 | CN1C[C@H]2C[C@@H]1CN2C(=O)c1ccc(Cn2ncc3nc(N)nc(NCC4CC5(CC5)C4)c32)c(OC(F)F)c1 [Compound 219] |
| 6.08 | 6.23 | Nc1nc(NCC2CC3(CC3)C2)c2c(cnn2Cc2ccc(CN3CC4(CNC4)C3)cc2OC(F)F)n1 [Compound 242] |
| 6.71 | 7.43 | COc1cc(C(=O)N2CC3(CN(C)C3)C2)ccc1Cn1ncc2nc(N)nc(NCc3noc(C)n3)c21 [Compound 247] |
| 7.52 | 6.72 | COc1cc(CNC2CCC2)ccc1Cn1ncc2nc(N)nc(NCC3CC4(CCC4)C3)c21 [Compound 153] |
| 6.76 | 8.24 | CCCCNc1nc(N)nc2cnn(Cc3ccc(CN4CCC5(CC4)CNC5)cc3OC)c12 [Compound 255] |
| 7.16 | 7.90 | COc1cc(CN2CC3(C2)CN(C(C)C)C3)ccc1Cn1ncc2nc(N)nc(NCc3noc(C)n3)c21 [Compound 263] |
